Experimental findings from US9006150B2, “Structural nucleic acid guided chemical synthesis” (Vipergen ApS, priority 2004, dated 2015) are described below.

The subject of assay [1] is 3E7 anti Leu-enkephalin monoclonal antibody. It counts as binding.
In assay [2] the test system is W6/32 monoclonal antibody.

“Also recorded” adds a separate entry of the source.

Tyr-Gly-Gly-Phe-Leu-DNA [R1 product]: the “binding to 3E7 antibody (gel-shifted band)” value in assay [1] is reported as “binding to 3E7 antibody; also recorded: specific binding”. Besides, the “gel-shifted band with IgG2A isotype matched negative control antibody” value in assay [2] is reported as “absent”. Take “Gly-Leu-Phe-Tyr-Gly-DNA (GLFYG; DNA conjugate; printed: Gly-Leu-Phe-Tyr-Gly-) [R2 product, Structural DNA display product with scrambled Leu-enkephalin, negative control for the partitioning assay]”: the “binding to 3E7 antibody (gel-shifted band)” value in assay [1] was “does not bind to 3E7”.
